Reference: publication PMC5085761 (International Journal of Molecular Sciences, 2016)

Assays:
[1] = system: LLC-PK1 monolayer model; test: Inhibition study of [14C]fluciclovine apical-to-basal transport, LLC-PK1 monolayer model
Text: Natural and synthetic amino acids were used as inhibitors: MeAIB (2-(methylamino)-isobutyric acid, for system A in the presence of Na^+); Thr (L-threonine, for system ASC in the presence of Na^+); and BCH (2-aminobicyclo[2,2,1]heptane-2-carboxylic acid, for system L in the absence of Na^+).

[2] = biological target: T1, OATP1B3 (Homo sapiens, UniProt Q9NPD5); test: [14C]fluciclovine uptake by OATP1B3-expressing cells; assay type: in vitro ADME; conditions: OATP1B3 cells vs mock cells
T1 construct: host or cells: HEK293
T1 sequence (Q9NPD5 1-702): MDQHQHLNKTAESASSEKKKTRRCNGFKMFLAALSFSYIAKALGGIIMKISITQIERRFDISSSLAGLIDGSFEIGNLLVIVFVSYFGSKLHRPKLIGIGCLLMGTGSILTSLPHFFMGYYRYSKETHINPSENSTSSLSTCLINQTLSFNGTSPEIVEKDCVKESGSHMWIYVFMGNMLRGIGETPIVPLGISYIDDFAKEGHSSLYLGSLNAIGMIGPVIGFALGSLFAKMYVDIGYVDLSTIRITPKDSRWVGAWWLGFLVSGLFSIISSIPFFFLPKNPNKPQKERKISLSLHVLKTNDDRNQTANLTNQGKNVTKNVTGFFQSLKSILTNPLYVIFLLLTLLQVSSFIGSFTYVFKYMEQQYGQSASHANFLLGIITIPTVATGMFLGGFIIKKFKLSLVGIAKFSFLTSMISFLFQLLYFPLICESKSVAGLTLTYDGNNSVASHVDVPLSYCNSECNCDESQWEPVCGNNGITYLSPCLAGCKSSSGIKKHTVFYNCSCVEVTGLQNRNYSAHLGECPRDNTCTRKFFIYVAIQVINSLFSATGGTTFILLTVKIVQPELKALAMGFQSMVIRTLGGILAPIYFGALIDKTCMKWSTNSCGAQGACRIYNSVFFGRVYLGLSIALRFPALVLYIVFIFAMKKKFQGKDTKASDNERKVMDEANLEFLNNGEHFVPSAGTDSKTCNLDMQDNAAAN
Method: For the SLC transporter experiments, Mock Flp-in-293 cells (Flp/mock), OAT1-expressing Flp-in-293 cells (Flp/OAT1), mock HEK293 cells (HEK/mock), and OATP1B3-expressing HEK293 cells (HEK/OATP1B3) were obtained from Kanazawa University (Ishikawa, Japan). Briefly, Flp-in-293 and HEK293 cells were transfected with the appropriate plasmid DNA and selected using antibiotics (hygromycin or G-418). All cell lines were cultured in DMEM (Life Technologies Japan) supplemented with 10% (v/v) fetal bovine serum (American Type Culture Collection) and antibiotics (100 U/mL penicillin and 100 μg/mL streptomycin (Life Technologies Japan) for mock cells, 0.2 mg/mL hygromycin for Flp/OAT1 cells, and 1.2 mg/mL G-418 (Roche Diagnostics K.K., Tokyo, Japan) for HEK/OATP1B3 cells) at 37 °C under an atmosphere containing 5% CO2. […]
The experiments were performed as described previously, with minor modifications. […] The cells were lysed in 0.3 mL of 0.1N NaOH at room temperature, after which the radioactivity of each aliquot was measured as described above. The protein concentration of the cell lysate was determined with a VersaMax microplate reader (Molecular Devices Japan K.K., Osaka, Japan) or SpectraMax i3x (Molecular Devices Japan K.K.; only for OATP1B1) using a BCA Protein Assay Kit (Thermo Fisher Scientific, Kanagawa, Japan). Tracer uptake was expressed as pmol/mg protein. […]

In the case of N[14C]1(C(=O)O)CC(F)C1 (stereo not drawn) [[^14C]fluciclovine, trans-1-amino-3-fluoro[1-^14C]cyclobutanecarboxylic acid], the “apical-to-basal transport rate, % of the control in Na+ buffer” value ([1]; Na+-free buffer, 10 µM, 120 min) is reported as 58.8%, the “contribution of Na+-dependent transport to the total penetration amount” value ([1]; control in Na+-free buffer subtracted from control in Na+ buffer) is reported as 41.2% and the drug transporter-mediated uptake [2] is reported as “negligible”.
